# Earlier results, collected in patent US10948221B1 (priority 2020, dated 2021).
# Tested on: rat
# Settings: in vivo
row,Compound,LD50 (oral-rat; mg/kg)
1,O=N[O-].[Ag+] [AgNO2],Toxic
2,CN.Cl [CH3NH3Cl],1600 mg/kg
3,N#C[O-].[K+] [KCNO],841 mg/kg
4,[K+].[O-][Cl+2]([O-])[O-] [KClO3],1870 mg/kg
5,[K+].[O-][Cl+3]([O-])([O-])[O-] [KClO4],100 mg/kg
6,O=N[O-].[K+] [KNO2],250 mg/kg
7,[Na+].[O-][Cl+2]([O-])[O-] [NaClO3],1200 mg/kg
8,[Na+].[O-][Cl+3]([O-])([O-])[O-] [NaClO4],2100 mg/kg
9,[F-].[Na+] [NaF],52 mg/kg
10,O=N[O-].[Na+] [NaNO2],180 mg/kg
11,AgNO3,Toxic
12,BaCl2•2H2O,118 mg/kg
13,K2SO4 [Solute K2SO4],6600 mg/kg
14,KIO3,136 mg/kg
15,KMnO4,1090 mg/kg
16,MgSO4•7H2O,2840 mg/kg
17,NH4NO3,2217 mg/kg
18,Na3PO4,7400 mg/kg
